In ChEMBL document CHEMBL6109175, “Ubiquitin-Specific Protease 7 (USP7) as a Promising Therapeutic Target for Drug Discovery: From Mechanisms to Therapies” (J Med Chem, 2025):
One block for each compound: values may come before it.

Experiments:
[1] = target: T1, Ubiquitin carboxyl-terminal hydrolase 7 (Homo sapiens, UniProt Q93009); assay: Inhibition of full length USP7 (unknown origin)
[2] = target: T1, Ubiquitin carboxyl-terminal hydrolase 7; assay: Inhibition of N-terminal His-tagged USP7 catalytic domain (208 to 554 residues) (unknown origin) by TR-FRET assay
[3] = target: T1, Ubiquitin carboxyl-terminal hydrolase 7; assay: Binding affinity to USP7 catalytic domain human USP7 (208 to 560 residues) (unknown origin) extracted from Escherichia coli assessed as dissociation constant
[4] = target: T1, Ubiquitin carboxyl-terminal hydrolase 7; assay: Inhibition of USP7 catalytic domain human USP7 (208 to 560 residues) (unknown origin) extracted from Escherichia coli

T1 sequence (Q93009 whole entry, the tested form may be a part): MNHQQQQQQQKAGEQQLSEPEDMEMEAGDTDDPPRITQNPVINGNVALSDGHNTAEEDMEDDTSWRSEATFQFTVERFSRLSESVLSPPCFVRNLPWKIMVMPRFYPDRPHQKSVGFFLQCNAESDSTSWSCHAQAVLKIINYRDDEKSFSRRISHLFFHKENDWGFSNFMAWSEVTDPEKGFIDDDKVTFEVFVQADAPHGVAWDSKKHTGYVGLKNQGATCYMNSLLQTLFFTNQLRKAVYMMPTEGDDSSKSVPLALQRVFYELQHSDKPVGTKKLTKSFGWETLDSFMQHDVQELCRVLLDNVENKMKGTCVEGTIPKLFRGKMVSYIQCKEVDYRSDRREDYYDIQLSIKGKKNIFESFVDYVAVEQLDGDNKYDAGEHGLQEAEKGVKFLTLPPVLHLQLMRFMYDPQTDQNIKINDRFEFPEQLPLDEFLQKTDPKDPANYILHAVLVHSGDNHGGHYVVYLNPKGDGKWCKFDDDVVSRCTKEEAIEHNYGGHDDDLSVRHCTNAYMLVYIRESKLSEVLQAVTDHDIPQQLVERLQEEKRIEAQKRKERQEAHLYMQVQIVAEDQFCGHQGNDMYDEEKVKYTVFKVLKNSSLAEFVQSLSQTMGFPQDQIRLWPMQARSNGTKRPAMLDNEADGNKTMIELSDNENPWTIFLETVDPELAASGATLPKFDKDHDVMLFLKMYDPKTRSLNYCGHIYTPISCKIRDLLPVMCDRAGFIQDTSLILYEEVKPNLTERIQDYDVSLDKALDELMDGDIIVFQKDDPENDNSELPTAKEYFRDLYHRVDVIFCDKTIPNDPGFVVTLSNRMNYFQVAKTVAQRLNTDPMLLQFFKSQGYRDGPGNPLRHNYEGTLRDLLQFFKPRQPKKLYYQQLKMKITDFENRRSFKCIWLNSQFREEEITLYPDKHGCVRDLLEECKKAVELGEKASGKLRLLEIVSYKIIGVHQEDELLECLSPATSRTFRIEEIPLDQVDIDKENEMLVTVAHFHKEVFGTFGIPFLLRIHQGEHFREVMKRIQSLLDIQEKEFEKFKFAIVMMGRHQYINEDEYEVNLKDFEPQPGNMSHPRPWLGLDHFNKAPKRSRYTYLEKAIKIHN

IC50 [1]: 10.2 µM
SMILES: O=C(CCc1ccccc1)N1CCC(O)(Cn2cnc3cc(Cl)ccc3c2=O)CC1

IC50 [2]: 0.61 µM
SMILES: CCc1c(-c2ccc(C(=O)NC)nc2)cnc(N)c1-c1ccc(O)cc1

Kd [3]: 0.065 µM
IC50 [4]: 52 µM
SMILES: O=C(C[C@@H](C(F)F)n1ccc(F)n1)N1CCC(O)(Cn2cnc3c(cnn3-c3ccc(F)cc3)c2=O)CC1
